The source of these data is patent US6015879A, “Peptide and peptide analog protease inhibitors” (Sibia Neurosciences, Inc., priority 1995, dated 2000).

Non-standard residues stand in square brackets, D forms with d. Residues, ends and D or L forms follow the SMILES beside them. ξ: configuration not given here. *: point of attachment. Chg = N[CH](C(=O)O)C1CCCCC1; Nle = CCCC[CH](N)C(=O)O; Cbz = O=C(OCc1ccccc1)*; ξNle = CCCCC(N)C(=O)O; CHN2 = [N-]=[N+]=C*

One experiment deals with Aβ formation in HGB 717/Swed cells. Nature of the experiment: Immunoblot assay for Aβ peptide (inhibition of Aβ formation). As to conditions: concentration of 10 μM, overnight, relative to DMSO control. In kind it is cell-based, Human. (In general: Immunoblotting shows a protein as a band on a membrane.)
In the case of `CC(=O)N[C@@H](CC(C)C)C(=O)N[C@@H](CC(C)C)C(=O)NC(C=O)CC1CCCCC1` (mixture of isomers) [Ac-L-L-Cha-(H), N-Ac-L-Leu-L-Leu-DL-cyclohexylalaninal], the “% INHIBITION OF Aβ” value worked out at 46%.

`C=C(C)CC(C=O)NC(=O)[C@H](Cc1ccccc1)NC(=O)[C@H](CC(C)C)NC(=O)OCc1ccccc1` (mixture of isomers) [Cbz-L-F-Lene-(H), (2SR)-N-Cbz-L-Leu-L-Phe-N-[2-(4-methyl-4-pentenal)]amide]: the “% INHIBITION OF Aβ” value worked out at 69%.

For `C=C(C)CC(C=O)NC(=O)[C@H](CC(C)C)NC(=O)[C@H](CC(C)C)NC(=O)OCc1ccccc1` (mixture of isomers) [Cbz-L-L-Lene-(H), (2SR)-N-Cbz-L-Leu-L-Leu N-[2-(4-methyl-4-pentenal)]amide], the “% INHIBITION OF Aβ” value was 95%.

Staying with this experiment, now noted: concentration of 40 μM, overnight, relative to DMSO control.
In the case of `CCCCC(C=O)N(C)C(=O)[C@H](CC(C)C)NC(=O)[C@H](CC(C)C)NC(=O)OCc1ccccc1` (mixture of isomers) [Cbz-L-L-[CH3]-Nl-(H), N-Cbz-L-Leu-L-Leu-DL-(methyl)norleucinal], the “% INHIBITION OF Aβ” value worked out at 97%.

Turning to `CCCCC(C=O)NC(=O)C(CC(C)C)NC(=O)C1CCCN1C(=O)OCc1ccccc1` [Cbz-P-L-Nl-(H), N-Cbz-L-Pro-L-Leu-L-norleucinal] (Cbz-Pro-Leu-[Nle]-aldehyde; configuration not given here), the “% INHIBITION OF Aβ” value was determined as 80%.

In the case of `CCCCC(C=O)NC(=O)[C@H](CC(C)C)N(C)C(=O)[C@H](CC(C)C)NC(=O)OCc1ccccc1` (mixture of isomers) [Cbz-L-[CH3]-L-Nl-(H), N-Cbz-L-Leu-L-(methyl)Leu-DL-norleucinal], the “% INHIBITION OF Aβ” value is listed as 77%.

As for `CC(C)C[C@H](NC(=O)OCc1ccccc1)C(=O)N[C@@H](Cc1ccccc1)C(=O)NC(C=O)CC1CCCCC1` (mixture of isomers) [Cbz-L-F-Cha-(H), (2SR)-N-Cbz-L-Leu-L-Phe-DL-cyclohexylalaninal], the “% INHIBITION OF Aβ” value is given as 100%.

As for `C=C(C)CC(C=O)NC(=O)[C@H](CC(C)C)NC(=O)[C@H](CC(C)C)OCc1ccccc1` (mixture of isomers) [2S-benzoxyvaleric-L-Lene-(H), (2SR)-N-[(2S)-2-benzoxy-4-methylpentanoyl]-L-Leu N-[2-(4-methyl-4-pentenal)]amide], the “% INHIBITION OF Aβ” value was determined as 85%.

Staying with this experiment, now noted: concentration of 50 μM, overnight, relative to DMSO control.
For the molecule `CCCCC(C=O)NC(=O)[C@H](CC(C)C)NC(=O)[C@H](CC(C)C)NC(=O)OCC1c2ccccc2-c2ccccc21` (mixture of isomers) [Fmoc-L-L-Nl-(H), N-Fmoc-L-Leu-L-Leu-DL-norleucinal], the “% INHIBITION OF Aβ” value came out at 89%.

The experiment is the same for the next values; noted with them: concentration of 75 μM, overnight, relative to DMSO control.
With `CCCCC(C#N)NC(=O)[C@H](CC(C)C)NC(=O)[C@H](CC(C)C)NC(C)=O` (stereo partly drawn) [Ac-L-L-Nl-(CN), (2S)-N-Ac-L-Leu-L-Leu N-[2-(hexanenitrile)]amide], the “% INHIBITION OF Aβ” value is recorded as 94%.

For the molecule `CC=CCC(C=O)NC(=O)[C@H](CC(C)C)NC(=O)[C@H](CC(C)C)NC(C)=O` (mixture of isomers) [Ac-L-L-Nlene-(H), (2SR)-N-Ac-L-Leu-L-Leu N [2-(trans-4-hexenal)]amide], the “% INHIBITION OF Aβ” value turned out to be 96%.

With `CCCCC(NC(=O)[C@H](CC(C)C)NC(=O)[C@H](CC(C)C)NC(C)=O)C(=O)C=[N+]=[N-]` (stereo partly drawn) [Ac-L-L-Nl-(DM), N-Ac-L-Leu-L-Leu-L-Nle-COCHN2] (Ac-Leu-Leu-[ξNle]-CHN2), the “% INHIBITION OF Aβ” value is reported as 87%.

In the case of `CCCCC(NC(=O)[C@H](CC(C)C)NC(=O)[C@H](CC(C)C)NC(C)=O)C(=O)C(F)(F)F` (mixture of isomers) [Ac-L-L-Nl-(TFMK), (3SR)-N-Ac-L-Leu-L-Leu N-[3-(1,1,1-trifluoro-2-oxoheptyl)]amide], the “% INHIBITION OF Aβ” value amounted to 50%.

For `CC(=O)NC(CC(C)C)C(=O)NC(CC(C)C)C(=O)NC(C=O)C1CCCCC1` [Ac-L-L-Chg-(H)] (Ac-Leu-Leu-[Chg]-aldehyde; configuration not given here), the “% INHIBITION OF Aβ” value is given as 99%.
